Where two headings read alike, the source gives them in different places.
Experiments:
DYRK3 = target: T1, DYRK3 (Homo sapiens, UniProt O43781); experiment: SelectScreen ZLYTE; assay type: biochemical; details: INX-0315 at 100nM
T1 construct: purchased Thermo Fisher Scientific SelectScreen (plus Nanosyn / Reaction Biology for CDK/cyclin lines)
In short: (§1)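 INX-315, single point 100 nmol/L, 1% DMSO; then 10-pt titration 1 µmol/L → 0.0495 nmol/L. Standard vendor conditions.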

PAK1 = target: T2, PAK1 (Homo sapiens, UniProt Q13153); experiment: SelectScreen ZLYTE; assay type: biochemical; details: INX-0315 at 100nM
T2 construct: purchased Thermo Fisher Scientific SelectScreen (plus Nanosyn / Reaction Biology for CDK/cyclin lines)
In short: as §1

TBK1 = target: T3, TBK1 (Homo sapiens, UniProt Q9UHD2); experiment: SelectScreen ZLYTE; assay type: biochemical; details: INX-0315 at 100nM
T3 construct: purchased Thermo Fisher Scientific SelectScreen (plus Nanosyn / Reaction Biology for CDK/cyclin lines)
In short: as §1

INSRR (IRR) = target: T4, INSRR (IRR) (Homo sapiens, UniProt P14616); experiment: SelectScreen ZLYTE; assay type: biochemical; details: INX-0315 at 100nM
T4 construct: purchased Thermo Fisher Scientific SelectScreen (plus Nanosyn / Reaction Biology for CDK/cyclin lines)
In short: as §1

SNF1LK2 = target: T5, SNF1LK2 (Homo sapiens, UniProt Q9H0K1); experiment: SelectScreen ZLYTE; assay type: biochemical; details: INX-0315 at 100nM
T5 construct: purchased Thermo Fisher Scientific SelectScreen (plus Nanosyn / Reaction Biology for CDK/cyclin lines)
T5 sequence (Q9H0K1 whole entry): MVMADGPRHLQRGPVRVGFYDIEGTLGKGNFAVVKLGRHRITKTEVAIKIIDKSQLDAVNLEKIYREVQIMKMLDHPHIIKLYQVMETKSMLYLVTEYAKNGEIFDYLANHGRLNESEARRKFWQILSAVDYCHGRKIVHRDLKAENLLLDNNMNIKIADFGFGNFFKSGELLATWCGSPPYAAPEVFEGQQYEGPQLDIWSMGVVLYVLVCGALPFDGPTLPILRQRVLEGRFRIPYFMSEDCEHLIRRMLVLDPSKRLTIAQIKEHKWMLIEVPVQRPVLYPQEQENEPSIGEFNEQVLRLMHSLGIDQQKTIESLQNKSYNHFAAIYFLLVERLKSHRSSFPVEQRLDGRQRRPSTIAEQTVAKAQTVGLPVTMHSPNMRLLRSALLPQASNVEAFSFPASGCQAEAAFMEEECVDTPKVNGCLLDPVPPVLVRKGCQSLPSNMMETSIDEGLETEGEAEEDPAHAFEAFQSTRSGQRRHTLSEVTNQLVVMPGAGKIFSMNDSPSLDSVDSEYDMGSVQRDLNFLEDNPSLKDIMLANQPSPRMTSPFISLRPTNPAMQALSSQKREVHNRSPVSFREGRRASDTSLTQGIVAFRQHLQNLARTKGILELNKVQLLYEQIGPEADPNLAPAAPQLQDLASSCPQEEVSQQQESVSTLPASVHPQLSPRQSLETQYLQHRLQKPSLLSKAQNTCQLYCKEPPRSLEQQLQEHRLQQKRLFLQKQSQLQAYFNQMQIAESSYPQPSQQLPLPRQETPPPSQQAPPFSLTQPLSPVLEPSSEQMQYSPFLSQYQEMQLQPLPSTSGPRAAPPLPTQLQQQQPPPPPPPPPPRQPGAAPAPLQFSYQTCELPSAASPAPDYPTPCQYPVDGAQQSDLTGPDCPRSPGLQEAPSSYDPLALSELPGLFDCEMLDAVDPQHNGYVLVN
In short: as §1

NTRK2 (TRKB) = target: T6, NTRK2 (TRKB) (Homo sapiens, UniProt Q16620); experiment: SelectScreen ZLYTE; assay type: biochemical; details: INX-0315 at 100nM
T6 construct: purchased Thermo Fisher Scientific SelectScreen (plus Nanosyn / Reaction Biology for CDK/cyclin lines)
T6 sequence (Q16620 32-822): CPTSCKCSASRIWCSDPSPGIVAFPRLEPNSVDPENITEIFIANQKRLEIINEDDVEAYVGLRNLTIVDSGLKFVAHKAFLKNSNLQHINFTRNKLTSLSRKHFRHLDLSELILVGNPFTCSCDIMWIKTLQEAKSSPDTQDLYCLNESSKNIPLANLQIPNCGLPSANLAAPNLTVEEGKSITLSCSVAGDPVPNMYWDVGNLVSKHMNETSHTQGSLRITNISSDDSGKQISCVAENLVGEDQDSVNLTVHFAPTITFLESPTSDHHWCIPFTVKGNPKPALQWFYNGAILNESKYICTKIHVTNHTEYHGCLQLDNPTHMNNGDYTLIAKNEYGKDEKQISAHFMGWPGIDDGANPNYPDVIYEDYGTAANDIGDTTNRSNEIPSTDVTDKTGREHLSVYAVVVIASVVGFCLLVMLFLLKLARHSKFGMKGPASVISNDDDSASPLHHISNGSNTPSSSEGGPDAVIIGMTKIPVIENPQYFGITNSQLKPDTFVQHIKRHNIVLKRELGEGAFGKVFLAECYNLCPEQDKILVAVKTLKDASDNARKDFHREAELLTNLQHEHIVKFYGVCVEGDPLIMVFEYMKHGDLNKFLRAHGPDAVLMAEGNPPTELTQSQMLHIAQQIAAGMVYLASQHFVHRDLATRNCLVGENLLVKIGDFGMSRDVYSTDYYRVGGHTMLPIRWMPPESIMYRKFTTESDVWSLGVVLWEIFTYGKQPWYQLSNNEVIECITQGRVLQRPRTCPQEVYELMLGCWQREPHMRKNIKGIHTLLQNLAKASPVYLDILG
In short: as §1

CSNK1D (CK1 delta) = target: T7, CSNK1D (CK1 delta) (Homo sapiens, UniProt P48730); experiment: SelectScreen ZLYTE; assay type: biochemical; details: INX-0315 at 100nM
T7 construct: purchased Thermo Fisher Scientific SelectScreen (plus Nanosyn / Reaction Biology for CDK/cyclin lines)
T7 sequence (P48730 whole entry): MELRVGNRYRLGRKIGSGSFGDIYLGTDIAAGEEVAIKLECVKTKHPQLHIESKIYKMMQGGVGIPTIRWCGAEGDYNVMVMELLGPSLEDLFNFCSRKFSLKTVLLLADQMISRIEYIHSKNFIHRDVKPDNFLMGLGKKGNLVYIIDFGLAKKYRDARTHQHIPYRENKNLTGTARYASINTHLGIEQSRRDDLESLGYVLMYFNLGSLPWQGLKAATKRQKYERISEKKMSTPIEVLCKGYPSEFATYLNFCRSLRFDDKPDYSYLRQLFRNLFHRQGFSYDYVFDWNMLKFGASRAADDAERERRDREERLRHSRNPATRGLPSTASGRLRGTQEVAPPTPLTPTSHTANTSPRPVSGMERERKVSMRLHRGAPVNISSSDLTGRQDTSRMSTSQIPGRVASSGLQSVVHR
In short: as §1

LTK (TYK1) = target: T8, LTK (TYK1) (Homo sapiens, UniProt P29376); experiment: SelectScreen ZLYTE; assay type: biochemical; details: INX-0315 at 100nM
T8 construct: purchased Thermo Fisher Scientific SelectScreen (plus Nanosyn / Reaction Biology for CDK/cyclin lines)
In short: as §1

NTRK3 (TRKC) = target: T9, NTRK3 (TRKC) (Homo sapiens, UniProt Q16288); experiment: SelectScreen ZLYTE; assay type: biochemical; details: INX-0315 at 100nM
T9 construct: purchased Thermo Fisher Scientific SelectScreen (plus Nanosyn / Reaction Biology for CDK/cyclin lines)
In short: as §1

MARK4 = target: T10, MARK4 (Homo sapiens, UniProt Q96L34); experiment: SelectScreen ZLYTE; assay type: biochemical; details: INX-0315 at 100nM
T10 construct: purchased Thermo Fisher Scientific SelectScreen (plus Nanosyn / Reaction Biology for CDK/cyclin lines)
In short: as §1

ABL1 Y253F = target: T11, ABL1 Y253F (Homo sapiens, UniProt P00519, Y253F); experiment: SelectScreen ZLYTE; assay type: biochemical; details: INX-0315 at 100nM
T11 construct: purchased Thermo Fisher Scientific SelectScreen (plus Nanosyn / Reaction Biology for CDK/cyclin lines)
In short: as §1

FGFR2 = target: T12, FGFR2 (Homo sapiens, UniProt P21802); experiment: SelectScreen ZLYTE; assay type: biochemical; details: INX-0315 at 100nM
T12 construct: purchased Thermo Fisher Scientific SelectScreen (plus Nanosyn / Reaction Biology for CDK/cyclin lines)
In short: as §1

ERBB2 (HER2) = target: T13, ERBB2 (HER2) (Homo sapiens, UniProt P04626); experiment: SelectScreen ZLYTE; assay type: biochemical; details: INX-0315 at 100nM
T13 construct: purchased Thermo Fisher Scientific SelectScreen (plus Nanosyn / Reaction Biology for CDK/cyclin lines)
T13 sequence (P04626 23-1255): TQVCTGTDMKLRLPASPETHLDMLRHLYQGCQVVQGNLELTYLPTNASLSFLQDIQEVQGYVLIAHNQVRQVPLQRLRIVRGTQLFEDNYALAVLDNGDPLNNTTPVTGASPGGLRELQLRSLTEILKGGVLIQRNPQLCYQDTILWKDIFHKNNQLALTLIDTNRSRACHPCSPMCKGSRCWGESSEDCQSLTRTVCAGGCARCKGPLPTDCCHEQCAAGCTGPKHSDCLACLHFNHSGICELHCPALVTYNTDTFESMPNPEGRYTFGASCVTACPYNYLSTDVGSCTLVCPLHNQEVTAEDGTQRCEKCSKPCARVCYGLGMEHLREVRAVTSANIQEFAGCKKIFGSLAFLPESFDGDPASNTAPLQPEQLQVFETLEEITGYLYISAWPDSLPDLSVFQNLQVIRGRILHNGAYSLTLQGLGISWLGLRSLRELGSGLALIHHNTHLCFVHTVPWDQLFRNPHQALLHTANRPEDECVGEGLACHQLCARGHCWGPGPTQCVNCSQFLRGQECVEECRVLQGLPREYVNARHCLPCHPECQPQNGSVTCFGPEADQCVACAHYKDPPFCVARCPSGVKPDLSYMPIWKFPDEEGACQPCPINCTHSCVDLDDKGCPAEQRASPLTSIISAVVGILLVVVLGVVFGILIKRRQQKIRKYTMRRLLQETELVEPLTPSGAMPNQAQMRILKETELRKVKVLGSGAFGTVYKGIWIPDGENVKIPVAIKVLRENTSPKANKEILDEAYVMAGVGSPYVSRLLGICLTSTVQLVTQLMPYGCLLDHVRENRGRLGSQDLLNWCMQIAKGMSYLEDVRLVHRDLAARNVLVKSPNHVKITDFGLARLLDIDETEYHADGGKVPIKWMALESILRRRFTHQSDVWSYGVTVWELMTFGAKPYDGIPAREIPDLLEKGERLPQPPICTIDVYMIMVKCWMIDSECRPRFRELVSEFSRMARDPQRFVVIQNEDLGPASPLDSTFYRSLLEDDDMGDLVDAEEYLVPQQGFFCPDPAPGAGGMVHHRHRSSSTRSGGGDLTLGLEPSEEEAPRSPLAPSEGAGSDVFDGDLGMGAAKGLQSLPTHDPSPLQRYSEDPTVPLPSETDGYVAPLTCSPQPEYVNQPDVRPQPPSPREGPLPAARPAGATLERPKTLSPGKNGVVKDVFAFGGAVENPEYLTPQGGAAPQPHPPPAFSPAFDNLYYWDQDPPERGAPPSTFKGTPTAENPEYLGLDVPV
In short: as §1

JAK2 = target: T14, JAK2 (Homo sapiens, UniProt O60674); experiment: SelectScreen ZLYTE; assay type: biochemical; details: INX-0315 at 100nM
T14 construct: purchased Thermo Fisher Scientific SelectScreen (plus Nanosyn / Reaction Biology for CDK/cyclin lines)
In short: as §1

[1] = target: T15, EGFR (ErbB1) T790M C797S L858R (Homo sapiens, UniProt P00533, C797S/L858R/T790M); experiment: SelectScreen ZLYTE; assay type: biochemical; details: INX-0315 at 100nM
T15 construct: purchased Thermo Fisher Scientific SelectScreen (plus Nanosyn / Reaction Biology for CDK/cyclin lines)
T15 sequence (P00533 25-1210 T790M/C797S/L858R): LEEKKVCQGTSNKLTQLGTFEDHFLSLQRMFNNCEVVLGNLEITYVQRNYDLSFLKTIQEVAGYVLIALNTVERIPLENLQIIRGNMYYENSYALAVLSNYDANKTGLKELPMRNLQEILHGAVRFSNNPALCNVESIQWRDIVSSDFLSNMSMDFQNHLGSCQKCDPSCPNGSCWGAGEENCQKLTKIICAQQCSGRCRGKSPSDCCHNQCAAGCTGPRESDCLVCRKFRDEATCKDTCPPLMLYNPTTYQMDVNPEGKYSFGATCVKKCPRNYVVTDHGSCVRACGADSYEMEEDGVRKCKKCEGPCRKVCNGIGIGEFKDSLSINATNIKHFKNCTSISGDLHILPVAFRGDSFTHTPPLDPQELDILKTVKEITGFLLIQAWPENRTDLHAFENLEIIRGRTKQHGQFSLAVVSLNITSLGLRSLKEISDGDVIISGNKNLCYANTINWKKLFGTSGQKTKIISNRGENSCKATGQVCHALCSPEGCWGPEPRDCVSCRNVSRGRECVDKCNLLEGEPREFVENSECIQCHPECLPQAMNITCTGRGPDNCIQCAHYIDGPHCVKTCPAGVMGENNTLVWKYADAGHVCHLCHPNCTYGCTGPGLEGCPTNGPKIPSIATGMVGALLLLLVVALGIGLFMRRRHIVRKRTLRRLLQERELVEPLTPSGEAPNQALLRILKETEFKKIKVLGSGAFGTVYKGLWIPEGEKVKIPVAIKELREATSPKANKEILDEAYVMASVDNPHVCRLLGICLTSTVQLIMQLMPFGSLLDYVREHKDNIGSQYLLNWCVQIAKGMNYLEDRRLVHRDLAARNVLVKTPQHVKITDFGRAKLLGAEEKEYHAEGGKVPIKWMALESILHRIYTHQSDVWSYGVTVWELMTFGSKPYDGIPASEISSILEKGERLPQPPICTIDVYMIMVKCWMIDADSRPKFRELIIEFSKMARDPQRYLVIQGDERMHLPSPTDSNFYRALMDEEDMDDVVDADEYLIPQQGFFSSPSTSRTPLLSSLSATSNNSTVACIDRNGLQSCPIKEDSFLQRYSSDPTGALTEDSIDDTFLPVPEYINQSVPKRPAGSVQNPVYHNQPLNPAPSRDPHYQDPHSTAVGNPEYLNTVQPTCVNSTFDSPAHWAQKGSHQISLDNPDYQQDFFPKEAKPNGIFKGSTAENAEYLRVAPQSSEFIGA
In short: as §1

PRKCQ (PKC theta) = target: T16, PRKCQ (PKC theta) (Homo sapiens, UniProt Q04759); experiment: SelectScreen ZLYTE; assay type: biochemical; details: INX-0315 at 100nM
T16 construct: purchased Thermo Fisher Scientific SelectScreen (plus Nanosyn / Reaction Biology for CDK/cyclin lines)
In short: as §1

pKa = assay type: physicochemical
[2] = Body weight of tumor-bearing mice; assay type: in vivo; details: mice treated with INX-315, CCNE1-amplified models
Experimental: (§2) PDX models were performed by Crown Biosciences (OV5398, GA0103, and GA0114) or XenoSTART (ST4316B). Tumor fragments from stock mice were harvested and implanted subcutaneously into the flank of NOD/SCID mice (OV5398, RRID:IMSR_JAX:001303), BALB/c nude mice (GA0103 and GA0114, RRID:IMSR_RJ:BALB-C-NUDE), or athymic nude mice (Crl:NU(NCr)-Foxn1nu, RRID:IMSR_CRL:490) (ST4316B). For CDX models, female athymic nude mice (Crl:NU(NCr)-Foxn1nu, RRID:IMSR_CRL:490) were inoculated with 1 × 10^7 50% Cultrex OVCAR3 cells in the flank. Experiments performed using MMTV-rtTA/tetO-HER2 mice were performed at the Peter MacCallum Cancer Centre. Tumor formation was induced and sustained in female mice with doxycycline as previously described ([33]). Randomization and treatment in all models began when median tumor volume reached a maximum of 300 mm^3.
Mice were treated via oral gavage. INX-315 was prepared weekly in 100% PEG400; abemaciclib was prepared as previously described ([33]) and ribociclib (Selleckchem, S7440) was prepared weekly in 0.5% methyl cellulose. To generate abemaciclib-resistant MMTV-rtTA/tetO-HER2 tumors, mice were treated continuously with abemaciclib at a dose of 75 mg/kg until tumors resumed growth as described in text. […]

CDK2/cyclin A/A1/E1/O = experiment: SelectScreen primary screen; assay type: biochemical; details: 100 nmol/L INX-315
Excerpt: (§3) INX-315 was first evaluated in the SelectScreen Biochemical Kinase Profiling at Thermo Fisher Scientific (Madison, WI). The primary screen consisted of INX-315 dosed at a single concentration of 100 nmol/L in 1% DMSO across each platform within the SelectScreen array of assays, LanthaScreen Eu Kinase Binding Assay; AdaptaScreen; and Z'LyteScreen using preestablished conditions at Thermo Fisher Scientific as shown in Supplementary Table S2. […] The follow-up screen consisted of 10-point dose–response curves for INX-315 from 1 µmol/L to 0.0495 nmol/L.

[3] = system: CDK3/cyclin E1, CDK5 (inactive), CDK5/p25, CDK5/p35, CSF1R, MAPK15/ERK7, NTRK/TRKC, TYK2; experiment: SelectScreen primary screen; assay type: biochemical; details: 100 nmol/L INX-315
Excerpt: as §3

ST4316B PDX = experiment: PDX tumor growth; assay type: in vivo, mice; details: monotherapy; ribociclib 50 mg/kg per day
Experimental: as §2
(§4) Mice were treated via oral gavage. INX-315 was prepared weekly in 100% PEG400; abemaciclib was prepared as previously described ([33]) and ribociclib (Selleckchem, S7440) was prepared weekly in 0.5% methyl cellulose. To generate abemaciclib-resistant MMTV-rtTA/tetO-HER2 tumors, mice were treated continuously with abemaciclib at a dose of 75 mg/kg until tumors resumed growth as described in text. At this point and in all other MMTV-rtTA/tetO-HER2 mice experiments, mice were randomized into treatment groups and abemaciclib was administered to indicated groups at a dose of 50 mg/kg. In all MMTV-rtTA/tetO-HER2 mice experiments, INX-315 was administered at a dose of 50 mg/kg twice daily. For PDX model ST4316B, ribociclib was administered at 50 mg/kg per day.

[4] = system: gastric adenocarcinoma PDX GA0103; experiment: PDX tumor growth; assay type: in vivo, mice; details: oral gavage, 56 days
Experimental: as §2, §4

[5] = system: gastric adenocarcinoma PDX GA0114; experiment: PDX tumor growth; assay type: in vivo, mice; details: 100 mg/kg twice daily, 5-week experiment
Experimental: as §2, §4

CLK4 = target: T17, CLK4 (Homo sapiens, UniProt Q9HAZ1); experiment: SelectScreen LanthaScreen Binding; details: INX-0315 at 100nM
T17 construct: purchased Thermo Fisher Scientific SelectScreen (plus Nanosyn / Reaction Biology for CDK/cyclin lines)
T17 sequence (Q9HAZ1 whole entry): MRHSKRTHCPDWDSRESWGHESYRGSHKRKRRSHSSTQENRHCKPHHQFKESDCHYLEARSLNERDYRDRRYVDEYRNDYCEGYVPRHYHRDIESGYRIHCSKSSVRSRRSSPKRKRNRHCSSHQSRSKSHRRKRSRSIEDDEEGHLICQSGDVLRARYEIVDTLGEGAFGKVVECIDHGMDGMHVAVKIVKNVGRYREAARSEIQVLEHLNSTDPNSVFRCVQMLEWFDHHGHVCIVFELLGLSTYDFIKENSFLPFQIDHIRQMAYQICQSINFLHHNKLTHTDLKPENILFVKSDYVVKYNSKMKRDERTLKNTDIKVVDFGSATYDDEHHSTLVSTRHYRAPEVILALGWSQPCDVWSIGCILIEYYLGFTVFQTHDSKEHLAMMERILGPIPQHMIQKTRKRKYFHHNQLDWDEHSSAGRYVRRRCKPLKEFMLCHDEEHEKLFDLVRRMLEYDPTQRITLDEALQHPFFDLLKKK
Excerpt: as §3

TLK2 = target: T18, TLK2 (Homo sapiens, UniProt Q86UE8); experiment: SelectScreen LanthaScreen Binding; details: INX-0315 at 100nM
T18 construct: purchased Thermo Fisher Scientific SelectScreen (plus Nanosyn / Reaction Biology for CDK/cyclin lines)
Excerpt: as §3

TESK2 = target: T19, TESK2 (Homo sapiens, UniProt Q96S53); experiment: SelectScreen LanthaScreen Binding; details: INX-0315 at 100nM
T19 construct: purchased Thermo Fisher Scientific SelectScreen (plus Nanosyn / Reaction Biology for CDK/cyclin lines)
Excerpt: as §3

## NS(=O)(=O)c1ccc(Nc2ncc3cc4n(c3n2)C2(CCCCC2)C(=O)NN4)cc1 [INX-315]
DYRK3
  inhibition at 0.1 µM: 8%
PAK1
  inhibition at 0.1 µM: 6%
TBK1
  inhibition at 0.1 µM: 5%
INSRR (IRR)
  inhibition at 0.1 µM: 3%
SNF1LK2
  inhibition at 0.1 µM: 18%
NTRK2 (TRKB)
  inhibition at 0.1 µM: 52%
CSNK1D (CK1 delta)
  inhibition at 0.1 µM: 0%
LTK (TYK1)
  inhibition at 0.1 µM: 7%
NTRK3 (TRKC)
  inhibition at 0.1 µM: 84%
MARK4
  inhibition at 0.1 µM: 8%
ABL1 Y253F
  inhibition at 0.1 µM: 8%
FGFR2
  inhibition at 0.1 µM: 20%
ERBB2 (HER2)
  inhibition at 0.1 µM: 0%
JAK2
  inhibition at 0.1 µM: 49%
[1]
  inhibition at 0.1 µM: 3%
PRKCQ (PKC theta)
  inhibition at 0.1 µM: 8%
pKa; read-out: pKa (acidic)
  pKa: 10.4
pKa; read-out: pKa (basic)
  pKa: 5.08
[2]
  loss of body weight during the studies: ≤ 5%
CDK2/cyclin A/A1/E1/O
  inhibition of CDK2/cyclin A/A1/E1/O: ≥ 94%
[3]
  inhibition of CDK3/cyclin E1, CDK5 (inactive), CDK5/p25, CDK5/p35, CSF1R, MAPK15/ERK7, NTRK/TRKC, TYK2: ≥ 80%
ST4316B PDX
  tumor growth: slowed tumor growth modestly
[4]; 100 mg/kg twice daily
  tumor growth: tumor regression
[4]; all other treatment groups: 25, 50 mg/kg twice daily, 100 mg/kg once a day
  tumor growth: significant growth inhibition
[5]
  tumor growth: significantly inhibited
CLK4
  inhibition at 0.1 µM: -2%
TLK2
  inhibition at 0.1 µM: 13%
TESK2
  inhibition at 0.1 µM: -1%
